In US11427595B2, “Compositions and methods for inhibiting viral infection” (Trustees of Boston University, priority 2018, dated 2022):

How the values were obtained:
[1] = system: OHFV viral envelope protein-mediated entry; assay type: cell-based, Omsk Hemorrhagic Fever Virus (OHFV)
[2] = system: JEV viral envelope protein-mediated entry; assay type: cell-based, Japanese encephalitis virus; conditions: Huh7.5 cells, FIG. 73C
[3] = system: Zika viral envelope protein-mediated entry; assay type: cell-based, Zika virus; conditions: Huh7.5 cells, FIG. 73C
[4] = system: Denv viral envelope protein-mediated entry; assay type: cell-based, Dengue virus; conditions: Huh7.5 cells, FIG. 73C
translation = conditions: previous studies; cited from earlier work
[5] = system: WNV viral envelope protein-mediated entry; assay type: cell-based, West Nile virus; conditions: Huh7.5 cells, FIG. 73C

Question: Which results are given for `COc1ccc([C@@]23Oc4cc(OC)cc(OC)c4[C@]2(O)C2=C(C(=O)N4CCC[C@H]4N2)[C@H]3c2ccccc2)cc1` [compound 5, aglaiastatin]?
Answer: % infection, OHFV envelope [1]: under 1%; % infection, JEV envelope [2]: under 1%; % infection, Zika envelope [3]: under 1%; % infection, Denv envelope [4]: under 1%; translation inhibition (in words) (translation): promising translation inhibitor; % infection, WNV envelope [5]: under 1%
